# Test results published in patent publication US20110178104A1, “Anti-Heparin Compounds” (POLYMEDIX INC., priority 2010, published 2011).
# “And” between values parts separate entries of the source, which are not always exact repeats. Identical values can stand only once.
# How the values were obtained:
# Unfractionated heparin = assay: aPTT clotting assay, UFH 0.4 U/mL in plasma (Example 10); format: biochemical; conditions: unfractionated heparin 0.4 U/mL in plasma; aPTT clotting
# Protocol: aPTT clotting Assay: Unfractionated heparin was mixed with plasma at a final concentration of 0.4 U/mL (or concentration which increases aPTT time to between 120 and 300 seconds). […] The ACL Elite Hemostasis analyzer (Beckman Coulter™) was used to add aPTT reagent (HemosIL SynthASil) to supplemented plasma. Clotting was initiated by addition of CaCl2 and time to clot was recorded.
# tinzaparin = assay: FXa amidolytic assay (Example 10), tinzaparin; conditions: read-out: Tinzap FXa EC50; tinzaparin 0.1 ug/ml; human antithrombin, bovine Factor Xa
# fondaparinux = assay: FXa amidolytic assay (Example 10), fondaparinux; conditions: read-out: Fondap FXa EC50; fondaparinux 0.02 μg/mL; human antithrombin, bovine Factor Xa
# enoxaparin = assay: FXa amidolytic assay (Example 10), enoxaparin; conditions: read-out: Enox FXa EC50; enoxaparin 0.1 ug/ml; human antithrombin, bovine Factor Xa
EC50 (Unfractionated heparin),EC50 (tinzaparin),EC50 (fondaparinux),EC50 (enoxaparin),Structure (SMILES)
2.15 µM,0.151 µM,0.799 µM,0.169 µM,COc1ccc(NC(=O)[C@H](CCCNC(=N)N)NC(=O)c2cc(NC(=O)[C@H](CCCNC(=N)N)NC(=O)c3cc(NC(=O)[C@H](CCCNC(=N)N)NC(=O)c4cc(NC(=O)[C@@H](N)CCCNC(=N)N)ccc4OC)ccc3OC)ccc2OC)cc1C(=O)NCCC(=O)O [Compound 285]
2.74 µM,0.264 µM,0.244 µM,0.264 µM,COc1ccc(NC(=O)[C@@H](CCCNC(=N)N)NC(=O)c2cc(NC(=O)[C@@H](CCCNC(=N)N)NC(=O)c3cc(NC(=O)[C@@H](CCCNC(=N)N)NC(=O)c4cc(NC(C)=O)ccc4OC)ccc3OC)ccc2OC)cc1C(=O)NCC(=O)O [Compound 294]
1.11 µM,> 5 µM,> 10 µM,0.281 µM,COc1cc(OC)c(C(=O)N[C@H]2CC[C@H](NC(=O)c3cc(C(=O)NCCN(C)C)c(OCCCCCN)cc3OCCCCCN)CC2)cc1C(=O)NCCN(C)C [Compound 228]
4.09 µM,0.248 µM,0.802 µM,0.316 µM,COc1ccc(NC(=O)[C@H](CCCNC(=N)N)NC(=O)c2cc(NC(=O)[C@H](CCCNC(=N)N)NC(=O)c3cc(NC(=O)[C@H](CCCNC(=N)N)NC(=O)c4cc(NC(=O)[C@H](C)NC(=O)CCCCNC(=N)N)ccc4OC)ccc3OC)ccc2OC)cc1C(N)=O [Compound 223]
1.38 µM,0.365 µM,> 10 µM,0.731 µM,COc1ccc(NC(=O)[C@H](CCCCN)NC(=O)c2cc(NC(=O)[C@@H](N)CCCCN)ccc2OC)cc1C(=O)N[C@@H](CCCCN)C(=O)Nc1ccc(OC)c(C(=O)N[C@@H](CCCCN)C(=O)Nc2ccc(OC)c(C(=O)N[C@H](Cc3ccccc3)C(=O)O)c2)c1 [Compound 264]
> 10 µM,> 5 µM,> 10 µM,> 5 µM,COc1ccc(NC(=O)[C@H](CCCCN)NC(=O)c2cc(C(=O)N[C@@H](CCCCN)C(=O)Nc3ccc(OC)c(C(=O)N[C@@H](CCCCN)C(N)=O)c3)c(OC)cc2OC)cc1C(=O)N[C@@H](CCCCN)C(N)=O [Compound 427]
2.59 µM,0.115 µM,0.955 µM,0.173 µM,COc1cc(OC)c(C(=O)N[C@H]2CC[C@H](NC(=O)c3cc(C(=O)NCCN(C)C)c(OCCCCCNC(=N)N)cc3OCCCCCNC(=N)N)CC2)cc1C(=O)N[C@H]1CC[C@@H](NC(=O)c2cc(C(=O)NCCN(C)C)c(OCCCCCNC(=N)N)cc2OCCCCCNC(=N)N)CC1 [Compound 222]
> 10 µM,> 5 µM,> 10 µM,> 5 µM,COc1cc(OC)c(C(=O)NCCCNC(=O)c2cc(C(=O)NCCCN)c(OC)cc2OC)cc1C(=O)O [Compound 409]
1.46 µM,0.113 µM,4.71 µM,0.229 µM,COc1ccc(NC(=O)[C@H](CCCCN)NC(=O)c2cc(NC(=O)[C@H](CCCCN)NC(=O)c3cc(NC(=O)[C@H](CCCCN)NC(=O)c4ccc(NC(=O)[C@@H](N)CCCCN)cc4OC)ccc3OC)ccc2OC)cc1C(N)=O [Compound 244]
1.72 µM,0.119 µM,0.473 µM,0.114 µM,COc1ccc(NC(=O)[C@@H](CCCNC(N)=O)NC(=O)c2cc(NC(=O)[C@@H](CCCNC(=N)N)NC(=O)c3cc(NC(=O)[C@@H](CCCNC(=N)N)NC(=O)c4cc(NC(=O)[C@H](N)CCCNC(=N)N)ccc4OC)ccc3OC)ccc2OC)cc1C(N)=O [Compound 255]
> 10 µM,> 5 µM,> 10 µM,> 5 µM,COc1cc(OC)c(C(=O)NCCCNC(=O)c2cc(C(=O)NCCN)c(OC)cc2OC)cc1C(=O)O [Compound 392]
> 10 µM,> 5 µM,> 10 µM,> 5 µM,COc1cc(OC)c(C(=O)N[C@H]2CC[C@@H](NC(=O)c3cc(C(=O)N4CCC(N)CC4)c(OC)cc3OC)CC2)cc1C(=O)N[C@H]1CC[C@@H](N=C(N(C)C)N(C)C)CC1 [Compound 420]
1.55 µM,0.285 µM,10.8 µM,0.581 µM,COc1ccc(NC(=O)[C@H](CCCCN)NC(=O)c2cc(NC(=O)[C@@H](N)CCCCN)ccc2OC)cc1C(=O)N[C@@H](CCCCN)C(=O)Nc1ccc(OC)c(C(=O)N[C@@H](CCCCN)C(=O)Nc2ccc(OC)c(C(=O)N[C@H](C)C(=O)O)c2)c1 [Compound 277]
> 10 µM,> 5 µM,> 10 µM,> 5 µM,COc1cc(OC)c(C(=O)N[C@H]2CC[C@H](NC(=O)c3cccc(C(=O)O)c3)CC2)cc1C(=O)NCCN [Compound 399]
1.66 µM,0.472 µM,> 10 µM,1.07 µM,COc1ccc(NC(=O)[C@H](CCCCN)NC(=O)c2cc(NC(=O)[C@@H](N)CCCCN)ccc2OC)cc1C(=O)N[C@@H](CCCCN)C(=O)Nc1ccc(OC)c(C(=O)N[C@@H](CCCCN)C(=O)Nc2ccc(SC)c(C(N)=O)c2)c1 [Compound 253]
2.9 µM,0.752 µM,5.91 µM,1.15 µM,CNc1cccc(C(=O)N[C@@H](CCCCN)C(=O)Nc2ccc(OC)c(C(=O)N[C@@H](CCCCN)C(=O)Nc3ccc(OC)c(C(=O)N[C@@H](CCCCN)C(=O)Nc4ccc(OC)c(C(N)=O)c4)c3)c2)c1 [Compound 243]
11.3 µM,0.53 µM,> 10 µM,2.75 µM,COc1cc(OC)c(C(=O)N[C@H]2CC[C@@H](NC(=O)c3cc(C(=O)N4CCC(N)CC4)c(OCCCCCN)cc3OCCCCCN)CC2)cc1C(=O)N[C@H]1CC[C@@H](NC(=O)c2cc(C(=O)N3CCC(N)CC3)c(OCCCCCN)cc2OCCCCCN)CC1 [Compound 426]
> 10 µM,> 5 µM,> 10 µM,> 5 µM,COc1cc(OC)c(C(=O)N2CCC(CNC(=O)c3cc(C(=O)NCCN)c(OC)cc3OC)CC2)cc1C(=O)O [Compound 396]
2.27 µM,0.212 µM,1.88 µM,0.318 µM,COc1ccc(NC(=O)[C@H](CCCCN)NC(=O)c2cc(NC(=O)[C@H](CCCCN)NC(=O)c3cc(NC(=O)[C@H](CCCCN)NC(=O)c4cc(NC(=O)[C@H](CCCCN)NC(=O)CC(=O)O)ccc4OC)ccc3OC)ccc2OC)cc1C(N)=O [Compound 290]
> 10 µM,> 5 µM,> 10 µM,> 5 µM,COc1cc(OC)c(C(=O)NCC2CCN(C(=O)c3cc(C(=O)N4CCC(CNC(=O)c5cc(C(=O)NCCN)c(OC)cc5OC)CC4)c(OC)cc3OC)CC2)cc1C(=O)NCCN [Compound 395]
1.63 µM,0.299 µM,7.02 µM,0.558 µM,COc1ccc(NC(=O)[C@H](CCCCN)NC(=O)c2cc(NC(=O)[C@H](CCCCN)NC(=O)c3cc(NC(=O)[C@H](CCCCN)NC(=O)c4cc(NC(=O)[C@@H](N)CCCCN)ccc4OC)ccc3OC)ccc2OC)cc1C(=O)NCCCCCC(=O)O [Compound 274]
6.08 µM,0.278 µM,0.295 µM,0.276 µM,COc1ccc(NC(=O)[C@H](CCCNC(=N)N)NC(=O)c2cc(NC(=O)[C@H](CCCNC(=N)N)NC(=O)c3cc(NC(=O)[C@H](CCCNC(=N)N)NC(=O)c4cc(NC(C)=O)ccc4OC)ccc3OC)ccc2OC)cc1C(=O)N[C@@H](Cc1ccc(O)cc1)C(=O)O [Compound 301]
1.2 µM,0.22 µM,0.159 µM,0.238 µM,COc1cc(OC)c(C(=O)Nc2ccc(NC(=O)c3cc(C(=O)Nc4ccc(NC(=O)c5cc(C(=O)NCCN)c(OC)cc5OC)cc4)c(OC)cc3OC)cc2)cc1C(=O)NCCN [Compound 421]
0.429 µM,0.062 µM,0.502 µM,0.088 µM,COc1cc(OC)c(C(=O)N[C@H]2CC[C@@H](NC(=O)c3cc(C(=O)NC4CCNCC4)c(OCCCCCN)cc3OCCCCCN)CC2)cc1C(=O)N[C@H]1CC[C@@H](NC(=O)c2cc(C(=O)NC3CCNCC3)c(OCCCCCN)cc2OCCCCCN)CC1 [Compound 425]
1.66 µM and 1.41 µM,0.247 µM and 0.215 µM,5.08 µM and 3.97 µM,0.399 µM and 0.284 µM,COc1ccc(NC(=O)[C@H](CCCCN)NC(=O)c2cc(NC(=O)[C@H](CCCCN)NC(=O)c3cc(NC(=O)[C@H](CCCCN)NC(=O)c4cc(NC(=O)[C@@H](N)CCCCN)ccc4OC)ccc3OC)ccc2OC)cc1C(=O)NCC(=O)O [Compound 260]
1.25 µM,0.426 µM,1.89 µM,0.608 µM,COc1cc(OC)c(C(=O)Nc2ccc(NC(=O)c3cc(C(=O)Nc4ccc(N=C(N(C)C)N(C)C)cc4)c(OC)cc3OC)cc2)cc1C(=O)NCCN [Compound 422]
4.26 µM,0.124 µM,4 µM,0.241 µM,COc1ccc(NC(=O)[C@H](CCCCN)NC(=O)c2cc(NC(=O)[C@H](CCCCN)NC(=O)c3cc(NC(=O)[C@H](CCCCN)NC(=O)c4cc(NC(=O)[C@@H](N)CCCCN)cc(C(F)(F)F)c4)ccc3OC)ccc2OC)cc1C(N)=O [Compound 239]
> 10 µM,> 5 µM,> 10 µM,> 5 µM,COc1cc(OC)c(C(=O)N[C@H]2CC[C@@H](NC(=O)c3cc(C(=O)N4CCC(CN)CC4)c(OC)cc3OC)CC2)cc1C(=O)N[C@H]1CC[C@@H](NC(=O)c2cc(C(=O)N3CCC(CN)CC3)c(OC)cc2OC)CC1 [Compound 415]
1.55 µM,0.202 µM,3.8 µM,0.319 µM,COc1ccc(NC(=O)[C@H](CCCCN)NC(=O)c2cc(NC(=O)[C@H](CCCCN)NC(=O)c3cc(NC(=O)[C@H](CCCCN)NC(=O)c4cc(NC(=O)[C@@H](N)CCCCN)ccc4OC)ccc3OC)ccc2OC)cc1C(=O)N[C@@H](CCCNC(N)=O)C(=O)O [Compound 273]
